# Measured values reported in patent publication US20070105114A1, “Biomarkers of cyclin-dependent kinase modulation” (priority 2003, published 2007).
# Structures can show the parent of a compound that is named as a salt.
# System: W28729
# Assay: W28729 expression by real-time quantitative PCR in cultured A2780 tumor cells
# Type: cell-based, human
# Details: 20 nM
# Protocol: Real-Time Quantitative PCR Assays: A Taqman® real-time-PCR fluorogenic assay (Applied Biosystems, Foster City, Calif., USA) was used to quantitate the levels of specific mRNA. The cdk2 inhibitor treated A2780s cells were harvested at approximately 70% confluence and total RNA was prepared using the Qiagen RNeasy 96 Kit.
# Taqman® reactions were prepared as follows: 100 ng total RNA; 25 nM-750 nM Forward Primer; 25 nM-750 nM Reverse Primer; 200 nM-400 nM Taqman® Probe (fluorescent dye labeled oligonucleotide primer); 1X Buffer A (Applied Biosystems, Foster City, Calif., USA); 5.5 mM MgCl2; 300 μM DATP, dGTP, dTTP, dCTP; 1 U Amplitaq Gold; 20 U Superscript 2; 1 U RNase Inhibitor. Real-time PCR was performed using an Applied Biosystems 7700 Sequence Detection System. […]
# The Sequence Detection System generates a Ct (threshold cycle) value that is used to calculate a concentration for each input messenger RNA template. Messenger RNA levels for each gene or fragment thereof of interest were normalized to GAPDH message levels to compensate for variations in total RNA quantity in the input sample. […] Ct values for the gene or fragments thereof of interest and GAPDH were inserted into the δδCt equation: Relative Quantity of Nucleic Acid Template=2^δδCt=2^(δCta-δCtb)(δCta=Ct target−Ct GAPDH, δCtb=Ct reference−Ct GAPDH) which was used to calculate a normalized relative message level. […]
smiles,measurement,value
"CC(C)(C)c1cnc(CSc2cnc(NC(=O)C3CCNCC3)s2)o1 [cdk2 inhibitor, N-5-[[5-(1,1-Dimethylethyl)-2-oxazolyl]methyl]thio]-2-thiazolyl-4-piperidinecarboxamide, 0.5-L-tartaric acid salt]",induction of W28729,induction of W28729 occurred
same,time after treatment at which W28729 induction was detected,1 h
